Laboratory results: patent US8729334B2, “Method for determining genotoxicity using non-fluorescent proteins” (priority 2010, dated 2014)
Read-outs that look alike come from different tables or passages of the source.

Tests used:
[1] = tested on: CH4003 (TA98 carrying EGFP^mut3 on chromosome); assay: His+ reversion, strain CH4003; details: for Number of revertants, EGFP^mut2 TA98, phenotype His^+: total 10^6 bacteria plated on minimal media plates
Method: (§1) The EGFP^mut DNA was inserted into the chromosome of Salmonella typhimurium LT2 strain via its putA site approximately 5 minutes away from the termination (ter) region of the chromosome (Elliott, 1992). lacP-EGFP^mut::CAT DNA was amplified with primers that contain sequences for the putA site of S. enterica serovar Typhimurium: 5′-primer […] […] […], which consisted of 50-nt or 55-nt of putA (putA sequences are underlined) and 25-nt or 22-nt sequences flaking lacP-nonEGFP::cat using pEGFP^mut::CAT plasmid as template. The 1.4-kbp PCR products were purified and transformed into bacteria carrying a Red helper plasmid (pKD46) by electroporation (Datsenko and Wanner, 2000). The Linear DNA contained a chloramphenicol gene as a marker for the P22 transduction into the S. typhimurium strain of Ames test, TA100 and TA98 to construct CH4001 and 4003, respectively (Davis, et al., 1980).
(§2) The plate-incorporation assay was carried out as described (OECD, 1997). Briefly, bacterial cells from stock cultures were grown for 12 hr in liquid medium at 37° C. A volume of 0.1 mL bacterial suspension was added to 2 mL of top agar (Difco) medium containing 0.6% agar, 0.6% NaCl and 20.96 μg of l-histidine and d-biotin (Sigma). Test solution (or solvent control, or positive control agent) and the S9-mix (0.5 mL/plate; 10% (v/v) S9) or potassium phosphate buffer (0.5 mL/plate; 0.2 M, pH 7.4; Sigma) were also added to the top agar which was then mixed and poured onto the top of Vogel-Bonner minimal medium agar plates (3 replicates/dose for the treated and 6 replicates for the solvent control). Colonies were counted 48 hr after incubation at 37° C. The highest volume of the test solution added per plate was initially limited to 100 μL, and then increased up to 200 μL in confirmation studies.
Subsequently, the gene for EGFP^mut was placed in the chromosome of relevant Salmonella typhimurium to establish mutation test strains analogous to that of Ames test. […]

[2] = tested on: S. typhimurium TA100; assay: Ames test, His+ reversion, tester strain TA100
Method: (§3) S. typhimurium strain of Ames test, TA98 and TA, were purchased and grown following manufacture's instruction (Xenometrix AG, Switzerland). CH4001 and CH4003 strains carrying EGFP^mut DNA on their chromosomes (Table 1) were created as described in Result section.
as §2
We tested mutation frequency of these two strains together with conventional Ames test strains, TA100 and TA98, in the presence of mutagens, ENU and ICR191. […]

[3] = tested on: CH4003 (TA98 carrying EGFP^mut3 on chromosome); details: for Number of revertants, EGFP^mut2 TA98, phenotype EGFP^+: total 10^6 bacteria plated on NA plates
Method: as §1
(§4) Subsequently, the gene for EGFP^mut was placed in the chromosome of relevant Salmonella typhimurium to establish mutation test strains analogous to that of Ames test. Linear DNA transformation method using λ Red system (Datsenko and Wanner, 2000) was employed to place the EGFP^mut genes at putAP sites (Elliott, 1992) in the wild type Salmonella chromosome, LT2. Then, each EGFP^mut1 and EGFP^mut3 gene was moved to TA100 and TA98 using generalized transducing phage, P22, resulting in a construction of CH 4001 and 4003.
(§5) We tested mutation frequency of these two strains together with conventional Ames test strains, TA100 and TA98, in the presence of mutagens, ENU and ICR191. ENU is known to induce base-pair substitution while ICR191 frameshift mutation (OECD, 1997). His^+ revertants were selected on minimal plates and EGFP^+ revertants were screened on NA plates which allowed visualization of about 10^6 colonies individually. […], a test strain for frameshift mutation, together with TA98, was incubated with 1 mg/plate ICR191.

[4] = tested on: CH4001 (TA100 carrying EGFP^mut1 on chromosome)
Method: as §1, §4, §5

[5] = tested on: CH4001 (TA100 carrying EGFP^mut1 on chromosome); assay: His+ reversion, strain CH4001
Method: as §1
The plate-incorporation assay was carried out as described (OECD, 1997). Briefly, bacterial cells from stock cultures were grown for 12 hr in liquid medium at 37° C. A volume of 0.1 mL bacterial suspension was added to 2 mL of top agar (Difco) medium containing 0.6% agar, 0.6% NaCl and 20.96 μg of l-histidine and d-biotin (Sigma). […] Colonies were counted 48 hr after incubation at 37° C. […]

[6] = tested on: MutaFish^1 carrying EGFP^mut1; assay: Genotoxicity test in transgenic zebrafish embryos, MutaFish^1
Description: EGFP^mut plasmid constructed as described above was microinjected into one-cell stage fertilized eggs laid by the AB* zebrafish line (Oregon University, Corvallis, Oreg.) with transposase mRNA. The microinjected eggs were raised to sexual maturity and mated to wild type AB* zebrafish. Subsequently, the resulting embryos were screened for the presence of mCherry fluorescence in the heart. The screened embryos (hereinafter named as F1) were processed for RT-PCR, Western blotting and Southern blotting to verify the genomic integration of mutant EGFP. The F1 embryos were raised again to sexual maturity and mated to each other to generate F2 embryos homozygous for EGFP^mut. F3 embryos, generated by in-cross between F2 zebrafish, were raised again to sexual maturity.
Fertilized eggs were obtained by pair mating transgenic F3 female and nontransgenic male fish. We divided 24 hr embryos, still coated with chorion, into three groups (266 embryos/group) and exposed them for 30 min at 26° C. to 10 ml of 0, 2, or 5 mM ENU in 0.1% Instant Ocean salts (Senja Pharmaceutical, Hyogo, Japan). Mutagenized embryos were then rinsed and kept in a 28.5° C. incubator for three days. […] The pooled surviving larvae were checked for morphological abnormality and EGFP^+ larvae were selected and then scored by FACSAria (BD Biosciences).
We injected Tol2 plasmid encoding EGFP^mut and transposase mRNA into one-cell stage fertilized zebrafish eggs. F1 progeny with germline transmission were selected by PCR and Southern blot analysis as described in the Experimental Protocol.
To evaluate whether these transgenic fishes could detect mutations in vivo, 24 hr embryos obtained by pair mating the transgenic and nontransgenic fish were treated with mutagens for 30 min: MutaFish^1 with ENU (5 mM) and MutaFish^3 with ICR191 (10 mM). Three days after treatment, the number of EGFP^+ larvae was determined (Table 4).

[7] = tested on: S. typhimurium TA98; assay: Ames test, His+ reversion, tester strain TA98; details: for Number of revertants, TA98, phenotype His^+: total 10^6 bacteria plated on minimal media plates
Method: as §3, §2, §5

[8] = tested on: MutaFish^3 carrying EGFP^mut3; assay: Genotoxicity test in transgenic zebrafish embryos, MutaFish^3; type: in vivo, zebrafish (Danio rerio)
Method: Almost all embryos were hatched during this incubation period.
One highly transgene-positive line was established.

[9] = 0.1 mg/plate ENU, total 10^6 bacteria plated on minimal media plates
[10] = EGFP^mut1 MutaFish, 24 hr embryos, 5 mM ENU for 30 min, scored three days after treatment

`CCN(N=O)C(N)=O` [ENU] was tested, and the “Number of revertants, EGFP^mut2 TA98, phenotype His^+” value ([1]; 0.1 mg/plate ENU) was 3.5, the “Number of revertants, TA100, phenotype His^+” value [2, 9] was 5.6 and the “frequency of His^+ revertants in TA100” value ([2]; 0.1 mg/plate of ENU) was 5.6×10^−6. The “Number of revertants, EGFP^mut2 TA98, phenotype EGFP^+” value ([3]; 0.1 mg/plate ENU) was 3.2, the “Number of revertants, EGFP^mut1 TA100, phenotype EGFP^+” value ([4]; 0.1 mg/plate ENU, total 10^6 bacteria plated on NA plates) was 7.1 and the “frequency of EGFP^+ reversion” value ([4]; in the presence of ENU (0.1 mg/plate), CH4001) was 7.1×10^−6. The “Number of revertants, EGFP^mut1 TA100, phenotype His^+” value [5, 9] was 5.2, the “frequency of His^+ revertants in CH4001” value ([5]; 0.1 mg/plate of ENU) was 5.2×10^−6 and the “Morphological abnormality (%)” value [6, 10] was 20.9%. For the same compound, the “Survival rate (%)” value [6, 10] was 97.3%, the “Mutant frequency × 10^−5” value ([6]; EGFP^mut1 MutaFish, EGFP^+ larvae, 5 mM ENU for 30 min, three days after treatment) was 63 × 10^−5 and the “frequency of EGFP^+ larvae” value ([6]; MutaFish^1, ENU 5 mM for 30 min, three days after treatment) was 6.3×10^−4. For the same compound, the “Number of revertants, TA98, phenotype His^+” value ([7]; 0.1 mg/plate ENU) was 3.2.
In the case of `COc1ccc2nc3cc(Cl)ccc3c(NCCCNCCCl)c2c1` [ICR191], the “mutation frequency of His^+ revertants in CH4003” value ([1]; 1 mg/plate ICR191) is reported as 420.8×10^−6, the “Number of revertants, EGFP^mut2 TA98, phenotype His^+” value ([1]; 1 mg/plate ICR191) is reported as 377.6 and the “frequency of EGFP^+ larvae” value ([8]; MutaFish^3, ICR191 10 mM for 30 min, three days after treatment) is reported as 2.32×10^−3. For the same compound, the “Morphological abnormality (%)” value ([8]; zebrafish, in vivo) was 24.2%, the “Mutant frequency × 10^−5” value ([8]; zebrafish, in vivo) was 232 × 10^−5 and the “Survival rate (%)” value ([8]; zebrafish, in vivo) was 79.2%. For the same compound, the “Number of revertants, EGFP^mut2 TA98, phenotype EGFP^+” value ([3]; 1 mg/plate ICR191) was 456.3, the “frequency of EGFP^+ revertants” value ([3]; in the presence of ICR191 (1 mg/plate), CH4003) was 456.3×10^−6 and the “frequency of His^+ revertants in TA98” value ([7]; 1 mg/plate ICR191) was 327.6×10^−6. For the same compound, the “Number of revertants, TA98, phenotype His^+” value ([7]; 1 mg/plate ICR191) was 420.8.
